Measurements as given in patent US7244758B2, “N-type calcium channel blockers” (Neuromed Pharmaceuticals Ltd., priority 2003, dated 2007).
Like-named read-outs stand apart in the source and are kept apart here.

Experiments:
[1] = system: rat formalin model; assay: Formalin-induced pain model (paw flinches); format: in vivo; conditions: 30 mg/kg IP, 10 min before formalin, saline control=100%
Description: The effects of intrathecally delivered compounds of the invention on the rat formalin model were measured. The compounds were reconstituted to stock solutions of approximately 10 mg/ml in propylene glycol. Eight Holtzman male rats of 275-375 g size were randomly selected per test article.
The following study groups were used, with test article, vehicle control (propylene glycol) and saline delivered intraperitoneally (IP):
Prior to initiation of drug delivery baseline behavioral and testing data were taken.
On the morning of testing, a small metal band (0.5 g) was loosely placed around the right hind paw. The rat was placed in a cylindrical Plexiglas chamber for adaptation a minimum of 30 minutes. Test Article or Vehicle Control Article was administered 10 minutes prior to formalin injection (50 μl of 5% formalin) into the dorsal surface of the right hindpaw of the rat. The animal was then placed into the chamber of the automated formalin apparatus where movement of the formalin injected paw was monitored and the number of paw flinches tallied by minute over the next 60 minutes (Malmberg, A. B., et al., Anesthesiology (1993) 79:270-281).
Results are presented as Maximum Possible Effect±SEM, where saline control=100%.

[2] = molecular target: T1, human α1G T-type channels (Homo sapiens, UniProt O43497); assay: Block of α1G T-type channels, whole-cell patch clamp in HEK cells; format: cell-based
T1 construct: expressed in transfected cells
T1 sequence (O43497 whole entry): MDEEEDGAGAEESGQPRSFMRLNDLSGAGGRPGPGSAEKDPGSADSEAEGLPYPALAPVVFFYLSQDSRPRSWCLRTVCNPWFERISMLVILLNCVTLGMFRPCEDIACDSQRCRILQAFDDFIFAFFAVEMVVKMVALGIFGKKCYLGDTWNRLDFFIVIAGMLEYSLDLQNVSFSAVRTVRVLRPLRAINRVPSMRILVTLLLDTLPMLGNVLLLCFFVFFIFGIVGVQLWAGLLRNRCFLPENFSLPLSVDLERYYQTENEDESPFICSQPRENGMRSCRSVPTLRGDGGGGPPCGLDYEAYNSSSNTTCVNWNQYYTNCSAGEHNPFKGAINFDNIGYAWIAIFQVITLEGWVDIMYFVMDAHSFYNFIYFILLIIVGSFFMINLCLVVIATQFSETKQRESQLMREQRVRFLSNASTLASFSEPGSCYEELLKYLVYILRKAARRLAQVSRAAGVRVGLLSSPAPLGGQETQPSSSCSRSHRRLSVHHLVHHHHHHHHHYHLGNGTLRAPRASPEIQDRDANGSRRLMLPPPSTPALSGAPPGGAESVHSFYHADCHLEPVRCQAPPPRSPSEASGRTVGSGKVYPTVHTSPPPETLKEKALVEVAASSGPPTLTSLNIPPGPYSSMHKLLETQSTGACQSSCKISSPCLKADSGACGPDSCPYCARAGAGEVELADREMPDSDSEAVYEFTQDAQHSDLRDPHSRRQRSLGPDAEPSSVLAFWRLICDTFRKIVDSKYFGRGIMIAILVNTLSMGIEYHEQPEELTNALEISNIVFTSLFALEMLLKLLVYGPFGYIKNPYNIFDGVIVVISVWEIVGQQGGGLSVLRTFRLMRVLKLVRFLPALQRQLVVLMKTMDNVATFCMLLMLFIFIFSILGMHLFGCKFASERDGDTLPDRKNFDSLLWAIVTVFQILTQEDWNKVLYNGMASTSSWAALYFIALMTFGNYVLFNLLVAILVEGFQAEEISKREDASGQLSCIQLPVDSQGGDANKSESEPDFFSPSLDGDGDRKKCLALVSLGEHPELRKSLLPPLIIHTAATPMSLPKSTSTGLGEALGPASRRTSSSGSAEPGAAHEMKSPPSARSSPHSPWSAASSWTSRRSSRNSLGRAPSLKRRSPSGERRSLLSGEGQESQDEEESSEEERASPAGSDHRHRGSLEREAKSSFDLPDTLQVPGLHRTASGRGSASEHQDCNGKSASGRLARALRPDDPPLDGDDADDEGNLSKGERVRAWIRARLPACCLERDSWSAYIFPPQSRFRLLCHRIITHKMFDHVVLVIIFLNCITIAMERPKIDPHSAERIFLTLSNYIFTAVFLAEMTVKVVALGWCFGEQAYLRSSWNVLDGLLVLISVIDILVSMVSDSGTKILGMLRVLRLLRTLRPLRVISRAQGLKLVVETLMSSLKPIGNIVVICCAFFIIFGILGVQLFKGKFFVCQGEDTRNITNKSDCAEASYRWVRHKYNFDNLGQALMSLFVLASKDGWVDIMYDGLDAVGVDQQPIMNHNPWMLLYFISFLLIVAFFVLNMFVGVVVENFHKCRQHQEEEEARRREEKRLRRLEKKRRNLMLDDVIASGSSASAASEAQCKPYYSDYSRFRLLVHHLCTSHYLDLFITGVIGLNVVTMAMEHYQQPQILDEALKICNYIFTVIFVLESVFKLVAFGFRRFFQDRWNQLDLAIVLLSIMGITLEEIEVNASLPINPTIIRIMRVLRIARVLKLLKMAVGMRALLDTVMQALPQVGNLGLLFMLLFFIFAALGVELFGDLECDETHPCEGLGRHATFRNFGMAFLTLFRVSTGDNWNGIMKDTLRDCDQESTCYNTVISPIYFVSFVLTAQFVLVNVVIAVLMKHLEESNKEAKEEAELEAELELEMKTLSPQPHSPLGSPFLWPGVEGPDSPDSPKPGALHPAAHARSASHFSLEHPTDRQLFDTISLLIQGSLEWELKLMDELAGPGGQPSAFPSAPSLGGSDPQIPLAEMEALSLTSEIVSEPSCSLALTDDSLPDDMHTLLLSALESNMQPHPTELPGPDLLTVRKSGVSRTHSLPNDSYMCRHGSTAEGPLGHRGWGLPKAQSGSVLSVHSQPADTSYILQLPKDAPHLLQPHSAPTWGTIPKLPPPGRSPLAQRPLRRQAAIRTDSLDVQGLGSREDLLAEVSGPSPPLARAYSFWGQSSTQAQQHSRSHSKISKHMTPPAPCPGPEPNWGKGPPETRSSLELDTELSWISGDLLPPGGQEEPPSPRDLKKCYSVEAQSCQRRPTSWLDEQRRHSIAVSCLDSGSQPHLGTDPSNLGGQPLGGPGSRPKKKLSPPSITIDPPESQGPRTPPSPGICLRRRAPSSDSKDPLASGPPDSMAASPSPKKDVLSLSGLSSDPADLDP
Description: Standard patch-clamp techniques were employed to identify blockers of T-type currents. Briefly, previously described HEK cell lines stably expressing human α1G T-type channels were used for all the recordings (passage #: 4-20, 37° C., 5% CO2). To obtain T-type currents, plastic dishes containing semi-confluent cells were positioned on the stage of a ZEISS AXIOVERT S100 microscope after replacing the culture medium with external solution (see below). Whole-cell patches were obtained using pipettes (borosilicate glass with filament, O.D.: 1.5 mm, I.D.: 0.86 mm, 10 cm length), fabricated on a SUTTER P-97 puller with resistance values of ˜5 MΩ (see below for internal solution).
In the non-inactivating protocol, the holding potential is set at −110 mV and with a pre-pulse at −100 mV for 1 second prior to the test pulse at −40 mV for 50 ms. […]
Test compounds were dissolved in external solution, 0.1-0.01% DMSO. After ˜10 min rest, they were applied by gravity close to the cell using a WPI microfil tubing. The “non-inactivated” pre-pulse was used to examine the resting block of a compound. The “inactivated” protocol was employed to study voltage-dependent block. However, the initial data shown below were mainly obtained using the non-inactivated protocol only. IC50 values are shown for various compounds of the invention in Table 6.

[3] = system: P/Q-type channels (α1A+α2δ+β1b); assay: Selectivity patch clamp, P/Q-type channels transiently expressed in HEK 293 cells; format: cell-based; conditions: N-type vs P/Q-type
Description: (§1) Antagonist activity was measured using whole cell patch recordings on human embryonic kidney cells either stably or transiently expressing rat α1B+α2δ+β1b channels (N-type channels) with 5 mM barium as a charge carrier. P/Q-type channels (α1A+α2δ+β1b cDNA subunits) and L-type channels (α1C+α2δ+β1b cDNA subunits) were also transiently expressed in HEK 293 cells.
(§2) After an incubation period of from 24 to 72 hrs the culture medium was removed and replaced with external recording solution (see below). Whole cell patch clamp experiments were performed using an Axopatch 200B amplifier (Axon Instruments, Burlingame, Calif.) linked to an IBM compatible personal computer equipped with pCLAMP software. Borosilicate glass patch pipettes (Sutter Instrument Co., Novato, Calif.) were polished (Microforge, Narishige, Japan) to a resistance of about 4 MΩ when filled with cesium methanesulfonate internal solution (composition in MM: 109 CsCH3 SO4, 4 MgCl2, 9 EGTA, 9 HEPES, pH 7.2). Cells were bathed in 5 mM Ba^++ (in mM: 5 BaCl2, 1 MgCl2, 10 HEPES, 40 tetraethylammonium chloride, 10 glucose, 87.5 CsCl pH 7.2). Current data shown were elicited by a train of 100 ms test pulses at 0.066 Hz from −100 mV and/or −80 mV to various potentials (min. −20 mV, max. +30 mV). Drugs were perfused directly into the vicinity of the cells using a microperfusion system. […]

[4] = molecular target: T2, rat brain N-type calcium channel subunits (α1B+α2δ+β1b) (Rattus norvegicus, UniProt Q02294); assay: N-type calcium channel block, whole cell patch clamp in HEK 293 cells; format: cell-based; conditions: holding −80 mV to +10 mV, 5 mM Ba
T2 construct: expressed in transfected cells; host or cells: HEK 293
T2 sequence (Q02294 whole entry): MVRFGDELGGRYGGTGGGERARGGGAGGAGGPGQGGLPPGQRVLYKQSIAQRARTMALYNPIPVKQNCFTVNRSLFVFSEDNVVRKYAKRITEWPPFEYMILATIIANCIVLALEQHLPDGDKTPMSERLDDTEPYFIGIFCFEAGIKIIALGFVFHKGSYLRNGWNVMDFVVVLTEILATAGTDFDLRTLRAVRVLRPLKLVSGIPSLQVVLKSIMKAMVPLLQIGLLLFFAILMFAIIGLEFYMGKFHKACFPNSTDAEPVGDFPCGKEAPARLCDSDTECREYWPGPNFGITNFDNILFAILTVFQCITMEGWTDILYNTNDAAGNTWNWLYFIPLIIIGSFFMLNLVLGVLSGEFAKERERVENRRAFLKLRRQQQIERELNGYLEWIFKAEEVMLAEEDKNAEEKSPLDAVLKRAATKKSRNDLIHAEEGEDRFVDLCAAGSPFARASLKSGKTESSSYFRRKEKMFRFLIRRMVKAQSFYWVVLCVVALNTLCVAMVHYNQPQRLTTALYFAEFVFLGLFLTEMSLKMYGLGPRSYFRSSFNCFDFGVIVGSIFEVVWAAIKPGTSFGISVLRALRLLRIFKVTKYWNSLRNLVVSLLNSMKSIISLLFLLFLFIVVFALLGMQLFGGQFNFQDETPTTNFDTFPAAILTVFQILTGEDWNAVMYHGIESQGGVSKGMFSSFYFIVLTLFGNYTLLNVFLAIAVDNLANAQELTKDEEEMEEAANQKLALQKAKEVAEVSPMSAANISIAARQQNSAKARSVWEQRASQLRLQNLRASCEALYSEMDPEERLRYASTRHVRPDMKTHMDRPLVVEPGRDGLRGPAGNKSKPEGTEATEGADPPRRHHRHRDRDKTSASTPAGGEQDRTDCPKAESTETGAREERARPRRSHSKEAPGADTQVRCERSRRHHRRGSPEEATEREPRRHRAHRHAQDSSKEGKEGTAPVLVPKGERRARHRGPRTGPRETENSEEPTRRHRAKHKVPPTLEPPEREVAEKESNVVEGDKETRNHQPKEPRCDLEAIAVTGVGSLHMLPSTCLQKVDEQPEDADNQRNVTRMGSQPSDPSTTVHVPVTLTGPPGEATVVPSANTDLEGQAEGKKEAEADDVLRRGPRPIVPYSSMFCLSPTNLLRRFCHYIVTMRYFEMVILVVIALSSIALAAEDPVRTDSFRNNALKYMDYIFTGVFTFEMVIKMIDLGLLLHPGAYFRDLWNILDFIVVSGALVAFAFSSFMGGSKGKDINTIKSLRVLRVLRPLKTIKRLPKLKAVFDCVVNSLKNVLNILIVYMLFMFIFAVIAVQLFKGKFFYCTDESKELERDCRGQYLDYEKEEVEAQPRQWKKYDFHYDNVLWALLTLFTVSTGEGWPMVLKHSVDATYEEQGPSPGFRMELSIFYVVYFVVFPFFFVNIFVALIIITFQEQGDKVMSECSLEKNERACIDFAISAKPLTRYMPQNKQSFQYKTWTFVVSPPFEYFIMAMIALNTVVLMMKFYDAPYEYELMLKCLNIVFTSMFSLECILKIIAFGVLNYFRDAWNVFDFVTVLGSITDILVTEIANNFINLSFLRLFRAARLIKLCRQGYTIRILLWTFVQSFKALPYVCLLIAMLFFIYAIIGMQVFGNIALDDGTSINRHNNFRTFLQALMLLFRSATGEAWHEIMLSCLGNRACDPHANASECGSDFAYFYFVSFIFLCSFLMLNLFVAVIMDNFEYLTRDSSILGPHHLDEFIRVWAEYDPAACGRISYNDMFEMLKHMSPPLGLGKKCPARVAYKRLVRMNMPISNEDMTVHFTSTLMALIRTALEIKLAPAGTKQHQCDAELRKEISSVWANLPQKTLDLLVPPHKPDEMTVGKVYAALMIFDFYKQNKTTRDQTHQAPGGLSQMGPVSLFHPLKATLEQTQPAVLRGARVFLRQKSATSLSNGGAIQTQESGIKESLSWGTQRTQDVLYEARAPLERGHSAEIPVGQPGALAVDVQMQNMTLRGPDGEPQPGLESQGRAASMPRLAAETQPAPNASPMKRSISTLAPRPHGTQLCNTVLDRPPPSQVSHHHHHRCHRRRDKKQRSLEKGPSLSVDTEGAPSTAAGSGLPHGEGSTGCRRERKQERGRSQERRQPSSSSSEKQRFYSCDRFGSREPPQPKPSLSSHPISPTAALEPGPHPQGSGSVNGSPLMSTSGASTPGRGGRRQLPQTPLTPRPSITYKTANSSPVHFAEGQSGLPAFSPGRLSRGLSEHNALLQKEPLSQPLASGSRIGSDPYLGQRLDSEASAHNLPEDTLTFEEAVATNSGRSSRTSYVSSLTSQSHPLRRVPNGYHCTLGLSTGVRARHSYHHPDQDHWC
Description: as §1
For transient expression, host cells, such as human embryonic kidney cells, HEK 293 (ATCC# CRL 1573) were grown in standard DMEM medium supplemented with 2 mM glutamine and 10% fetal bovine serum. HEK 293 cells were transfected by a standard calcium-phosphate-DNA coprecipitation method using the rat α1B+β1b+α2δ N-type calcium channel subunits in a vertebrate expression vector (for example, see Current Protocols in Molecular Biology).
After an incubation period of from 24 to 72 hrs the culture medium was removed and replaced with external recording solution (see below). Whole cell patch clamp experiments were performed using an Axopatch 200B amplifier (Axon Instruments, Burlingame, Calif.) linked to an IBM compatible personal computer equipped with pCLAMP software. Borosilicate glass patch pipettes (Sutter Instrument Co., Novato, Calif.) were polished (Microforge, Narishige, Japan) to a resistance of about 4 MΩ when filled with cesium methanesulfonate internal solution (composition in MM: 109 CsCH3 SO4, 4 MgCl2, 9 EGTA, 9 HEPES, pH 7.2). Cells were bathed in 5 mM Ba^++ (in mM: 5 BaCl2, 1 MgCl2, 10 HEPES, 40 tetraethylammonium chloride, 10 glucose, 87.5 CsCl pH 7.2). […] Drugs were perfused directly into the vicinity of the cells using a microperfusion system.
Normalized dose-response curves were fit (Sigmaplot 4.0, SPSS Inc., Chicago, Ill.) by the Hill equation to determine IC50 values. Steady-state inactivation curves were plotted as the normalized test pulse amplitude following 5 s inactivating prepulses at +10 mV increments. Inactivation curves were fit (Sigmaplot 4.0) with the Boltzman equation, Ipeak (normalized)=1/(1+exp((V−Vh)z/25.6)), where V and Vh are the conditioning and half inactivation potentials, respectively, and z is the slope factor.
N-type calcium channel blocking activity was assayed in human embryonic kidney cells, HEK 293, stably transfected with the rat brain N-type calcium channel subunits (α1B+α2δ+β1b cDNA subunits). Alternatively, N-type calcium channels (α1B+α2δ+β1b cDNA subunits), L-type channels (α1C+α2δ+β1b cDNA subunits) and P/Q-type channels (α1A+α2δ+β1b cDNA subunits) were transiently expressed in HEK 293 cells. Briefly, cells were cultured in Dulbecco's modified eagle medium (DMEM) supplemented with 10% fetal bovine serum, 200 U/ml penicillin and 0.2 mg/ml streptomycin at 37° C. with 5% CO2. At 85% confluency cells were split with 0.25% trypsin/1 mM EDTA and plated at 10% confluency on glass coverslips. At 12 hours the medium was replaced and the cells transiently transfected using a standard calcium phosphate protocol and the appropriate calcium channel cDNA's. Fresh DMEM was supplied and the cells transferred to 28° C./5% CO2. Cells were incubated for 1 to 2 days to whole cell recording.
Whole cell patch clamp experiments were performed using an Axopatch 200B amplifier (Axon Instruments, Burlingame, Calif.) linked to a personal computer equipped with pCLAMP software. The external and internal recording solutions contained, respectively, 5 mM BaCl2, […], 10 mM HEPES, 40 mM TEACl, 10 mM glucose, 87.5 mM CsCl (pH 7.2) and 108 mM CsMS, 4 mM MgCl2, 9 mM EGTA, 9 mM HEPES (pH 7.2). Currents were typically elicited from a holding potential of −80 mV to +10 mV using Clampex software (Axon Instruments).

[5] = system: L-type channels (α1C+α2δ+β1b); assay: Selectivity patch clamp, L-type channels transiently expressed in HEK 293 cells; format: cell-based; conditions: N-type vs L-type
Description: as §1, §2

[6] = inactivation protocol (voltage-dependent block), read-out: IC50 at −80 mV
[7] = non-inactivating protocol, pre-pulse −100 mV (resting block), read-out: IC50 at −100 mV
[8] = low frequency stimulation 0.067 Hz (tonic block), read-out: IC50 at 0.067 Hz
[9] = pulse frequency 0.2 Hz (frequency dependent block), read-out: IC50 at 0.2 Hz

Row | Compound | IC50 [2, 6] [nM] | IC50 [2, 7] [nM] | IC50 [4, 8] [nM] | IC50 [4, 9] [nM] | Maximum Possible Effect ± SEM, Phase I [1] [%] | Maximum Possible Effect ± SEM, Phase II [1] [%] | Maximum Possible Effect ± SEM, Phase IIA [1] [%] | selectivity for N-type over P/Q-type channels [3] | selectivity for N-type over L-type channels [5]
1 | CC(C)(C)c1cc(C(=O)NCC2CCN(C(=O)CCCCC(c3ccc(F)cc3)c3ccc(F)cc3)C2)cc(C(C)(C)C)c1 (centres unmarked) [Compound P17] |  | 29 | 60 |  | 74 ± 8 | 84 ± 9 | 79 ± 9 | approximately 31 fold | greater than 75 fold
2 | O=C(NCC1CCN(C(=O)CCCCC(c2ccc(F)cc2)c2ccc(F)cc2)C1)c1cc(C(F)(F)F)cc(C(F)(F)F)c1 (centres unmarked) [Compound P24] |  | 12 | 380 | 210 | 66 ± 11 | 38 ± 7 | 20 ± 4 |  | 
3 | O=C(NCC1CCN(C(=O)CCCCC(c2ccc(F)cc2)c2ccc(F)cc2)C1)c1cc(C(F)(F)F)cc(C(F)(F)F)c1 (centres unmarked) [Compound P49] | 8 | 18 | 136 | 89 |  |  |  |  | 
4 | CN(CC(=O)N(c1ccccc1)c1ccccc1)CC1CCN(C(c2ccccc2)c2ccccc2)C1 (centres unmarked) [Compound P54] | 55 | 153 | 279 | 241 |  |  |  |  | 
5 | CN(C(=O)CN(CC(=O)N(C)c1ccccc1)CC1CCN(C(c2ccccc2)c2ccccc2)C1)c1ccccc1 (centres unmarked) [Compound P60] | 227 | 618 | 57 | 45 |  |  |  |  | 

Continued, in another order:

Row | IC50 [2, 6] [nM] | IC50 [2, 7] [nM] | IC50 [4, 8] [nM] | IC50 [4, 9] [nM] | Compound | Maximum Possible Effect ± SEM, Phase I [1] [%] | Maximum Possible Effect ± SEM, Phase II [1] [%] | Maximum Possible Effect ± SEM, Phase IIA [1] [%] | selectivity for N-type over P/Q-type channels [3] | selectivity for N-type over L-type channels [5]
6 | 0.7 | 1.5 |  |  | COc1c(C(C)(C)C)cc(C(=O)NCC2CCN(C(=O)CCCCC(c3ccc(F)cc3)c3ccc(F)cc3)C2)cc1C(C)(C)C (centres unmarked) [Compound P13] | 85 ± 9 | 86 ± 7 | 86 ± 5 |  | 
7 | 8 | 24 | 295 | 185 | O=C(NCC1CCN(C(c2ccccc2)c2ccccc2)C1)NC(c1ccccc1)c1ccccc1 (centres unmarked) [Compound P47] |  |  |  |  | 
8 | 18 | 57 | 326 | 226 | CN(CCN(c1ccccc1)c1ccccc1)CC1CCN(C(c2ccccc2)c2ccccc2)C1 (centres unmarked) [Compound P55] |  |  |  |  | 
9 | 28 | 115 | 225 | 81 | CN(Cc1cc(C(F)(F)F)cc(C(F)(F)F)c1)CC1CCN(C(=O)CCCCC(c2ccc(F)cc2)c2ccc(F)cc2)C1 (centres unmarked) [Compound P57] |  |  |  |  | 
10 | 58 | 79 | 120 | 86 | COc1cc(CN(C)CC2CCN(C(=O)CCCCC(c3ccc(F)cc3)c3ccc(F)cc3)C2)cc(OC)c1OC (centres unmarked) [Compound P58] |  |  |  |  | 
11 | 6000 | 40000 | 8000 | 2000 | c1ccc(C(c2ccccc2)N2CCC(CN(CCN(c3ccccc3)c3ccccc3)CCN(c3ccccc3)c3ccccc3)C2)cc1 (centres unmarked) [Compound P59] |  |  |  |  | 
